Converted amounts (≈) assume the structure as drawn. Blank lines part the entries; values can stand above or below the compound they belong to.
Legend:
[1] = target: T1, Inhibitor of nuclear factor kappa-B kinase subunit epsilon (Homo sapiens, UniProt Q14164); assay: Inhibition of human recombinant IKKepsilon by TR-FRET assay
T1 sequence (Q14164 whole entry): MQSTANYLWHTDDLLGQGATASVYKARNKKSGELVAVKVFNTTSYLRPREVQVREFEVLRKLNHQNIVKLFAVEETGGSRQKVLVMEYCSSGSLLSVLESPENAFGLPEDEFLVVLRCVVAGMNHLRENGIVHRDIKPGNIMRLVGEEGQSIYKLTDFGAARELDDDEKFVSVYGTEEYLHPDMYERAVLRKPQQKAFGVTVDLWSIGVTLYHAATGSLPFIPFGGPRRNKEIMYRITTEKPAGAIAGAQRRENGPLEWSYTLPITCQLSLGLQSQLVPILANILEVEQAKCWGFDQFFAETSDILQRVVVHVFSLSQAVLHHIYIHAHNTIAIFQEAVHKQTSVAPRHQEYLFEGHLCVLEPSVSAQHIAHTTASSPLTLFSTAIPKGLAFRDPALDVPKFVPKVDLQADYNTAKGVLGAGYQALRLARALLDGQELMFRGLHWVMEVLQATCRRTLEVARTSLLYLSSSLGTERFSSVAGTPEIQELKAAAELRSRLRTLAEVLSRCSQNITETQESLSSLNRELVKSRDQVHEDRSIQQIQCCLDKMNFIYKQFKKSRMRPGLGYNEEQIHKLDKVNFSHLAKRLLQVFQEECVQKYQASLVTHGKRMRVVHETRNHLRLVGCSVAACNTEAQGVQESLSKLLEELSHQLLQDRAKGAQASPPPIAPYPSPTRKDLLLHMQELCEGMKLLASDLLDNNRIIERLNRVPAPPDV

[2] = target: Serine/threonine-protein kinase PLK1 (Homo sapiens, UniProt P53350); assay: Inhibition of PLK1
[3] = target: Glycogen synthase kinase-3 (Homo sapiens, UniProt P49840+P49841); assay: Inhibition of GSK3; type: protein assay
[4] = target: Epidermal growth factor receptor (Homo sapiens, UniProt P00533); assay: Inhibition of EGFR
[5] = target: Cytochrome P450 2D6 (Homo sapiens, UniProt P10635); assay: Inhibition of CYP2D6; type: ADME
[6] = target: Mitogen-activated protein kinase 14 (Homo sapiens, UniProt Q16539); assay: Inhibition of p38alpha
[7] = Aqueous solubility of the compound; type: physicochemical; details: buffer
[8] = target: Cytochrome P450 3A4 (Homo sapiens, UniProt P08684); assay: Inhibition of CYP3A4; type: ADME
[9] = target: T2, TGF-beta receptor type-1 (Homo sapiens, UniProt P36897); assay: Inhibition of Alk5
T2 sequence (P36897 whole entry): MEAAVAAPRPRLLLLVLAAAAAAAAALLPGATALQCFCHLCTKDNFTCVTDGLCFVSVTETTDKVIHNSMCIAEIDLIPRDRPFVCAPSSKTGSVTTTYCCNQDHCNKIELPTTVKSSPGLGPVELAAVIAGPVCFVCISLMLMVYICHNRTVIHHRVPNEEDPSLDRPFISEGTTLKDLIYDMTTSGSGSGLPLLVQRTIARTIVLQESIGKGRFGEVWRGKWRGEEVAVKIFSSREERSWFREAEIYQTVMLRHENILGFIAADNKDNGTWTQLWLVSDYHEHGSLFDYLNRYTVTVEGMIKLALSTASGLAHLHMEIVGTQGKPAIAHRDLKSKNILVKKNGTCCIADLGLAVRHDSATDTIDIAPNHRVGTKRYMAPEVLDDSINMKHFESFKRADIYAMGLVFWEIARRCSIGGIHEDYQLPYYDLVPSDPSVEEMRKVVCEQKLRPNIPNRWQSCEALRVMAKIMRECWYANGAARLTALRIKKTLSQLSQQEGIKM

[10] = target: Cytochrome P450 2C9 (Homo sapiens, UniProt P11712); assay: Inhibition of CYP2C9; type: ADME
[11] = target: T3, Cytochrome P450 1A2 (Homo sapiens, UniProt P05177); assay: Inhibition of CYP1A2; type: ADME
T3 sequence (P05177 whole entry): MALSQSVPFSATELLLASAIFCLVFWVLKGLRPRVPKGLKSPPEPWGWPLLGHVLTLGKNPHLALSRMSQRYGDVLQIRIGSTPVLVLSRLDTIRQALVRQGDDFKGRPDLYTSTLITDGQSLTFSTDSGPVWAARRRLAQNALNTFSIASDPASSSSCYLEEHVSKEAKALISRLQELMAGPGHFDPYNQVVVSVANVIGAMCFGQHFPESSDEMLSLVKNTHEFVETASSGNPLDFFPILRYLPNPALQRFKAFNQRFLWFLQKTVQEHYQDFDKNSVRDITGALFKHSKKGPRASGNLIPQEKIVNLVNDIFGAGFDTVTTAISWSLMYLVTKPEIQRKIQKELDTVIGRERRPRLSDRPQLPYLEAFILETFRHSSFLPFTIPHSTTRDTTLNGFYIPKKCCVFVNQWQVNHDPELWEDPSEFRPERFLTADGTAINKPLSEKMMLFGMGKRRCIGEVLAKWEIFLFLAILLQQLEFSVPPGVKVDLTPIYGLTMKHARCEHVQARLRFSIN

[12] = target: Mitogen-activated protein kinase 11 (Homo sapiens, UniProt Q15759); assay: Inhibition of p38beta
[13] = target: Mitogen-activated protein kinase 10 (Homo sapiens, UniProt P53779); assay: Inhibition of JNK3
[14] = target: Receptor tyrosine-protein kinase erbB-2 (Homo sapiens, UniProt P04626); assay: Inhibition of ErB2
Receptor tyrosine-protein kinase erbB-2, sequence (P04626 whole entry): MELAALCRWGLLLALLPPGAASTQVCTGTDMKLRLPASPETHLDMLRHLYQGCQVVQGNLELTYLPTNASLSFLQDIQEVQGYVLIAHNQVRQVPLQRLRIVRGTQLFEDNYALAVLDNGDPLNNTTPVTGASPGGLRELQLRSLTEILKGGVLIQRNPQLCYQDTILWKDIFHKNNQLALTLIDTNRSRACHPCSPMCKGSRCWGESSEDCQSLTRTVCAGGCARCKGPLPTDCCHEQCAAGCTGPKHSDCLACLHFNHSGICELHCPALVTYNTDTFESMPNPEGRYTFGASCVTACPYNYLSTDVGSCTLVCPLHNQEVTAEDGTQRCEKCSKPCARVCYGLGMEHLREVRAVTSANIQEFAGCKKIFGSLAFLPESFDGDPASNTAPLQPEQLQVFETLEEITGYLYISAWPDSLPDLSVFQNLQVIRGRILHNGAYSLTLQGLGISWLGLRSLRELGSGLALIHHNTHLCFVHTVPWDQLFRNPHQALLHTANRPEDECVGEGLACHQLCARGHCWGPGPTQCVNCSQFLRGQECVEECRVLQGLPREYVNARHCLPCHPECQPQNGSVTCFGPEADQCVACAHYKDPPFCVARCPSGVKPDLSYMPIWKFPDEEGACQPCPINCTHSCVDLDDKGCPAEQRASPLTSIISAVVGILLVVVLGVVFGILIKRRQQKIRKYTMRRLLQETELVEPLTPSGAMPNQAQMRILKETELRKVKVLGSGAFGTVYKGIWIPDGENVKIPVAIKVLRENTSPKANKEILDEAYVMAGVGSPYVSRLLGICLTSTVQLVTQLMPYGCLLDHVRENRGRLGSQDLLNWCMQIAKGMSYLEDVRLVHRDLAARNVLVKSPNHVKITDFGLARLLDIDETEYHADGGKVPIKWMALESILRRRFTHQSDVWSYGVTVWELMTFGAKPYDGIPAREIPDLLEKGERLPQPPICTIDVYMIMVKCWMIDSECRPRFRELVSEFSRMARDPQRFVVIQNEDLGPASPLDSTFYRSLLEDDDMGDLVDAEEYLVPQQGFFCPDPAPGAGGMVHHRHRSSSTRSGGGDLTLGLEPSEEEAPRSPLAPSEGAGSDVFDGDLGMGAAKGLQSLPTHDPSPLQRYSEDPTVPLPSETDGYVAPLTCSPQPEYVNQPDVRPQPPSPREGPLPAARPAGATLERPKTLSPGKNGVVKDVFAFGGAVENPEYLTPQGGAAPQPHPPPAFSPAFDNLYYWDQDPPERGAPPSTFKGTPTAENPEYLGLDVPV

Serine/threonine-protein kinase PLK1, sequence (P53350 whole entry): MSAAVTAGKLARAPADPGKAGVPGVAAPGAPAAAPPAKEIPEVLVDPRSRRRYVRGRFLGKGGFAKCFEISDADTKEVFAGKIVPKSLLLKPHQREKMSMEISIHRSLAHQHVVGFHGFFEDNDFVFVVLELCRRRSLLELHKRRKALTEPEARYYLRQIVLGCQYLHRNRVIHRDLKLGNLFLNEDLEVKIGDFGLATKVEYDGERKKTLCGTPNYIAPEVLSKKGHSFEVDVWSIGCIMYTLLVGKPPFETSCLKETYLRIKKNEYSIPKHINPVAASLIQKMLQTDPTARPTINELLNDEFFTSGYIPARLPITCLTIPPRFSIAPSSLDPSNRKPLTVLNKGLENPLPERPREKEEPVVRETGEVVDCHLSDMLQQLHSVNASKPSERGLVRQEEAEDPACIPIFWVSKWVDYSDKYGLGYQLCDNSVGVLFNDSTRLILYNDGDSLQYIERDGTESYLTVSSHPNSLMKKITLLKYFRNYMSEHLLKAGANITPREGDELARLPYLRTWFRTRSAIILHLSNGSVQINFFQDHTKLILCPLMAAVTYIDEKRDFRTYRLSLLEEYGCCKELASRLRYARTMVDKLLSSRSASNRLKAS
Cytochrome P450 3A4, sequence (P08684 whole entry): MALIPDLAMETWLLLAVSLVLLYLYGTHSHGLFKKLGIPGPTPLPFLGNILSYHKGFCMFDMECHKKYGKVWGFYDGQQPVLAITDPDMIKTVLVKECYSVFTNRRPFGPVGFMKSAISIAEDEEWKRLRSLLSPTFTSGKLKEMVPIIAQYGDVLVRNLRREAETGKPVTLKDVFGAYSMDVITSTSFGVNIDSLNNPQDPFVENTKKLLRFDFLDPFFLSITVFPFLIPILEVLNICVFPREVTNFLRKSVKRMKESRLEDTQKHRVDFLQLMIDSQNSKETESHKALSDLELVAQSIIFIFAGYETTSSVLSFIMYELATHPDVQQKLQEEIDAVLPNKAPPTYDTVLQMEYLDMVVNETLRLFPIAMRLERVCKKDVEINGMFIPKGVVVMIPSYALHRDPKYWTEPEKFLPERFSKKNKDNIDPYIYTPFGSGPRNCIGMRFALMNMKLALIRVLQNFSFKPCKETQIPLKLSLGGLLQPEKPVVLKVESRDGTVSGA
Mitogen-activated protein kinase 14, sequence (Q16539 whole entry): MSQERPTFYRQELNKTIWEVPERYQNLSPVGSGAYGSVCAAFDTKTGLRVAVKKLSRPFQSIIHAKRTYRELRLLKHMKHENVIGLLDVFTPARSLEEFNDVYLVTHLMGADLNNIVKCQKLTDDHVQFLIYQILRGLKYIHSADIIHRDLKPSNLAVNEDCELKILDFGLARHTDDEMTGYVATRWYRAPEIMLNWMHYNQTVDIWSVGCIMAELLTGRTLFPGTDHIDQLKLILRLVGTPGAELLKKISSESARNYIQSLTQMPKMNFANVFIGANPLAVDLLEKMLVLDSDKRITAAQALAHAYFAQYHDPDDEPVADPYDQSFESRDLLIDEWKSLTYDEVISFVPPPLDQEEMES
Mitogen-activated protein kinase 10, sequence (P53779 whole entry): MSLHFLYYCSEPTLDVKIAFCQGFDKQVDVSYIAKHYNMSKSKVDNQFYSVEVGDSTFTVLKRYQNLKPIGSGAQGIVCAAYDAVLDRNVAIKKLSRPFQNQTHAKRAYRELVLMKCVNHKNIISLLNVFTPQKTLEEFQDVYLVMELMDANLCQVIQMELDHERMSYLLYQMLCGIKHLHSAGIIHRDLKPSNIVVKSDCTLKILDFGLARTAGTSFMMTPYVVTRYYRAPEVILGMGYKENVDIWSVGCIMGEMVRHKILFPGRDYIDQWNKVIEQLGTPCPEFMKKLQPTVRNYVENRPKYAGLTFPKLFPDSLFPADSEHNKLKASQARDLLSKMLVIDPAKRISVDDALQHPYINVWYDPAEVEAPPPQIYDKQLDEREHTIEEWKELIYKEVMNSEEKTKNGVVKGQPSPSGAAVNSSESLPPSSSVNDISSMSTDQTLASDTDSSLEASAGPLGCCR
Epidermal growth factor receptor, sequence (P00533 whole entry): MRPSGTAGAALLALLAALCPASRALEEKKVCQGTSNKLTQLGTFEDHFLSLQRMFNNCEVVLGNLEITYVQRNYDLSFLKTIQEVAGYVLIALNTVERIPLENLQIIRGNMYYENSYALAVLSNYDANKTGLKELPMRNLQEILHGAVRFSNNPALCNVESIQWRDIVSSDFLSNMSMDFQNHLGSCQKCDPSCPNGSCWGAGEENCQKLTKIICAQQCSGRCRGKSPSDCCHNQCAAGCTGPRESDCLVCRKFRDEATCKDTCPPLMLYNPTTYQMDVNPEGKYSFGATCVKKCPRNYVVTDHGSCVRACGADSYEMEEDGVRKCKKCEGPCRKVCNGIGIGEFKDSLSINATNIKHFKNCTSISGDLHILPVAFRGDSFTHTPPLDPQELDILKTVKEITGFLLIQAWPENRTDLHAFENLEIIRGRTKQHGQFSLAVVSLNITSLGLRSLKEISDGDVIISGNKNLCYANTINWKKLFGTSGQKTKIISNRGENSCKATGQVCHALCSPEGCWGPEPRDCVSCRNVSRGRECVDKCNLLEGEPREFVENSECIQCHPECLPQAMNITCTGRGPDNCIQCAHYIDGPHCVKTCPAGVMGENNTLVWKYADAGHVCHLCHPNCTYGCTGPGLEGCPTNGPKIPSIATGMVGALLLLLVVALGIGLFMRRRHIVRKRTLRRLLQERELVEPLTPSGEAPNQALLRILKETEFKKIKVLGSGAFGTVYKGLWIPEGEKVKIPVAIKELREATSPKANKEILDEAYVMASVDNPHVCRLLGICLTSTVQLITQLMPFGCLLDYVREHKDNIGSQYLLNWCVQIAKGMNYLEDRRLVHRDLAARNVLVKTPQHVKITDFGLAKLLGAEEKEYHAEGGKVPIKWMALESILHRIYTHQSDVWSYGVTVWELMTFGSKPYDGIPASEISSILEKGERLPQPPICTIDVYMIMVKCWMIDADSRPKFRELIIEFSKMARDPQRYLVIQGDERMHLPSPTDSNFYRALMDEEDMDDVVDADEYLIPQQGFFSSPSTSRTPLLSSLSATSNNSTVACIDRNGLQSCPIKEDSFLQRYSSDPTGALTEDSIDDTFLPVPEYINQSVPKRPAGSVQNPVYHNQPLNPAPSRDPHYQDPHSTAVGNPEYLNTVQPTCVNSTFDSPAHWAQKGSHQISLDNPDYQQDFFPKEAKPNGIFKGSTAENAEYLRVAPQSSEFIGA
Cytochrome P450 2C9, sequence (P11712 whole entry): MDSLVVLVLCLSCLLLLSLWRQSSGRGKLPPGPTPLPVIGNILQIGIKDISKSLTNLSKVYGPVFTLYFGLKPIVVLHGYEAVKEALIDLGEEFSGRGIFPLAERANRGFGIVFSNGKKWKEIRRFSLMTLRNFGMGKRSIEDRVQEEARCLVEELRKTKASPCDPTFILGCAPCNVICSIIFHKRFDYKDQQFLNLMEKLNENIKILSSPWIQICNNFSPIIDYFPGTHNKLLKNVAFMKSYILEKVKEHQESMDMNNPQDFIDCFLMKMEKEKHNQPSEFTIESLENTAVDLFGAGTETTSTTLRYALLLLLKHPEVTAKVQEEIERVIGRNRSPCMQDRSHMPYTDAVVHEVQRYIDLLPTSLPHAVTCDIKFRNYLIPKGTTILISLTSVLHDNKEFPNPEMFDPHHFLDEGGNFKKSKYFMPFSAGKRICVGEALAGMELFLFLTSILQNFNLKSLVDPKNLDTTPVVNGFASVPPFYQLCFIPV

SMILES: COc1cc2ncn(-c3cc(OCc4ccc(S(C)(=O)=O)cc4)c(C#N)s3)c2cc1OC
- IC50 [1]: 5010 nM
- IC50 [2]: 631 nM

SMILES: COc1cc2ncn(-c3cc(OCCN4CCOCC4)c(C#N)s3)c2cc1OC
- IC50 [1]: 1580 nM

SMILES: COc1cc2ncn(-c3cc(O)c(C#N)s3)c2cc1OC
- IC50 [1]: 2510 nM

SMILES: COc1cc2c(cc1OCCCO)ncn2-c1cc(OCc2ccccc2C(F)(F)F)c(C#N)s1
- IC50 [1]: 25.1 nM

SMILES: N#Cc1sc(-n2cnc3ccccc32)cc1OCc1ccccc1
- IC50 [1]: 1000 nM

SMILES: COc1cc2c(cc1OCCN1CCOCC1)ncn2-c1cc(OCc2ccccc2C(F)(F)F)c(C#N)s1
- IC50 [1]: 50.1 nM

SMILES: COc1cc2ncn(-c3cc(OCCN4CCCCC4)c(C#N)s3)c2cc1OC
- IC50 [1]: 5010 nM

SMILES: COc1cc2ncn(-c3cc(OCC4CC4)c(C#N)s3)c2cc1OC
- IC50 [1]: 3160 nM

SMILES: COc1cc2ncn(-c3cc(OCC4CCCO4)c(C#N)s3)c2cc1OC (configuration not stated)
- IC50 [1]: 794 nM

The next lines start with the values.

- IC50 [2]: 126 nM
SMILES: COc1cc2ncn(-c3cc(OCc4ccc(S(C)(=O)=O)cc4)c(C(N)=O)s3)c2cc1OC

- IC50 [2]: 251 nM
SMILES: COc1cc2ncn(-c3cc(OCC4CCCO4)c(C(N)=O)s3)c2cc1OC (configuration not stated)

- IC50 [1]: 3980 nM
SMILES: COc1cc2ncn(-c3cc(O[C@H](C)c4ccccc4C(F)(F)F)c(C#N)s3)c2cc1OC

- IC50 [1]: > 15800 nM
- IC50 [2]: 631 nM
SMILES: COc1cc2ncn(-c3cc(OCc4ccccc4)c(C(=O)O)s3)c2cc1OC

- IC50 [1]: 251 nM
SMILES: COc1cc2ncn(-c3cc(OCc4ccccc4C(F)(F)F)c(C#N)s3)c2cc1OC

- IC50 [1]: 12600 nM
SMILES: COc1cc2ncn(-c3cc(OCc4ccc(C(N)=O)cc4)c(C#N)s3)c2cc1OC

- IC50 [1]: 20000 nM
SMILES: COc1cc2ncn(-c3cc(O[C@H](C)c4ccccc4Cl)c(C(N)=O)s3)c2cc1OC [GSK-237701A]

- Log IC50 [3]: > -4.8
- IC50 [4]: > 10000 nM
- IC50 [5]: > 50100 nM
- IC50 [6]: > 15800 nM
- solubility [7]: 60 µM (≈ 28.2 µg/mL)
- IC50 [8]: > 50100 nM
- IC50 [9]: > 5010 nM
- IC50 [10]: > 50100 nM
- IC50 [1]: 39.8 nM
- IC50 [2]: 794 nM
- IC50 [11]: > 50100 nM
- IC50 [12]: > 15800 nM
- IC50 [13]: > 15800 nM
- IC50 [14]: > 10000 nM
SMILES: COc1cc2ncn(-c3cc(OCc4ccccc4S(C)(=O)=O)c(C#N)s3)c2cc1OC [GSK-319347A]
